Source: US20230067378A1, “COMPOSITIONS AND METHODS FOR THE TREATMENT OF ESTROGEN-DEPENDENT DISORDERS” (ObsEva S.A., priority 2018, published 2023)
pKi: −log10 of the molar value.

Assays:
progesterone = test: circulating progesterone concentration, same clinical trial; assay type: in vivo, human; conditions: both cohorts (Concurrent-ABT and Delayed-ABT), exception of a single outlier subject, FIG. 3B
Procedure: The experiments described in this example were conducted as part of a single-center, open-label, randomized, parallel-group clinical trial in 32 pre-menopausal women. Following screening assessments, and during the second half of the menstrual cycle, women received norethindrone (5 mg, three-times daily for 10 days) to synchronize menstrual cycles. […]
(§1) The main treatment outcomes and endpoints measured during these experiments included (i) a qualitative assessment of uterine blood loss, which was recorded on a daily basis throughout the study by characterizing each subject's bleeding pattern using one of the following four categories: “no bleeding,” “spotting” (light staining, dark blood, no sanitary protection needed or only panty liner), “bleeding” (1-4 completely soiled maxi sanitary towels or 1-8 soiled tampons or equivalent combination of the two), or “heavy bleeding” (>4 completely soiled maxi sanitary towels or >8 soiled tampons or equivalent combination of the two); (ii) a bi-weekly assessment of each subject's circulating E2 concentration; (iii) a bi-weekly assessment of each subject's circulating progesterone concentration (measured using a validated commercial chemiluminescence immunoassay method (Elecsys Progesterone III, Roche, Burgess Hill, UK)); (iv) the pharmacokinetic profile of compound (VI) and the add-back therapy; and (v) adverse events.

[1] = half-life in a human patient; conditions: in vivo, also the choline salt (VIa)
human GnRH receptor = target: T1, human GnRH receptor (Homo sapiens, UniProt P30968); test: affinity for human GnRH receptor; assay type: binding; conditions: kind of constant not given; also for salts such as the choline salt
T1 sequence (P30968 1-328): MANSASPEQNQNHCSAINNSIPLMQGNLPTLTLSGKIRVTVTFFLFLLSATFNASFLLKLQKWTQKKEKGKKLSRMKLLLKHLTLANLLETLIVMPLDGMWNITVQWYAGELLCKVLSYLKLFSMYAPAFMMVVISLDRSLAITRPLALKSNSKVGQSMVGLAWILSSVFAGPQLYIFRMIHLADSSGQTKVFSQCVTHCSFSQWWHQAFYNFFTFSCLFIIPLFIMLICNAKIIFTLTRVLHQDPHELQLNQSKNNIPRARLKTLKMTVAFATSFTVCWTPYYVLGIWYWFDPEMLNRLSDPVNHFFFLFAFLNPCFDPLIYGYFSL

[2] = adverse events, same clinical trial; assay type: in vivo, human
Procedure: (§2) The experiments described in this example were conducted as part of a single-center, open-label, randomized, parallel-group clinical trial in 32 pre-menopausal women. Following screening assessments, and during the second half of the menstrual cycle, women received norethindrone (5 mg, three-times daily for 10 days) to synchronize menstrual cycles. After menstrual cycle synchronization, subjects were randomized with a 1:1 ratio to one of two treatment arms: (i) a cohort receiving once-daily administration of compound (VI) (200 mg per day, administered in the form of a choline salt) with concurrent onset of add-back therapy administration for 10 weeks (“Concurrent-ABT”), or (ii) a cohort receiving pre-treatment with compound (VI) (200 mg per day, administered in the form of a choline salt) for 4 weeks followed by combined daily administration of compound (VI) and add-back therapy (“Delayed-ABT”). The add-back therapy used in these experiments contained 1.0 mg of E2 and 0.5 mg of norethindrone acetate, and was administered to subjects once daily.
as §1

β17-estradiol (E2) = test: circulating E2 concentration, same clinical trial; assay type: in vivo, human; conditions: for median E2 level: Delayed-ABT cohort, Compound (VI) alone
Procedure: as §2, §1

[3] = Days 1-14, treatment A (Concurrent-ABT), N=16
[4] = Days 1-14, treatment B (Delayed-ABT), N=16
[5] = Days 15-28, Overall (A+B), N=32
[6] = Days 15-28, treatment A (Concurrent-ABT), N=16
[7] = Days 15-28, treatment B (Delayed-ABT), N=16
[8] = Days 29-42, Overall (A+B), N=29
[9] = Days 29-42, treatment A (Concurrent-ABT), N=14
[10] = Days 29-42, treatment B (Delayed-ABT), N=15
[11] = Days 43-56, Overall (A+B), N=29
[12] = Days 43-56, treatment A (Concurrent-ABT), N=14
[13] = Days 43-56, treatment B (Delayed-ABT), N=15
[14] = Days 57-70, Overall (A+B), N=29
[15] = Days 57-70, treatment A (Concurrent-ABT), N=14
[16] = Days 57-70, treatment B (Delayed-ABT), N=15
[17] = events of all reported adverse events, both cohorts

COc1cc(F)c(-n2c(=O)[nH]c3csc(C(=O)O)c3c2=O)cc1OCc1c(OC)ccc(F)c1F [Compound (VI), 3-[2-fluoro-5-(2,3-difluoro-6-methoxybenzyloxy)4-methoxyphenyl]-2,4-dioxo-1,2,3,4-tetrahydrothieno [3,4d]pyrimidine-5-carboxylic acid]
circulating progesterone (progesterone): sustained reduction in circulating progesterone | half-life [1]: 14 to 15 h | pKi (human GnRH receptor): 7.56 | hot flushes, cohort of occurrence ([2]; Concurrent-ABT versus Delayed-ABT): exclusively occurred in the “Delayed-ABT” group | Hot Flush, subjects (%), Plasma Estradiol Level 20-50 pg/mL ([2]; Days 1-14, Overall (A+B), N=32): (0.0%) | Hot Flush, subjects (%), Plasma Estradiol Level <20 pg/mL ([2]; Days 1-14, Overall (A+B), N=32): (6.3%) | Hot Flush, subjects (%), Plasma Estradiol Level >50 pg/mL ([2]; Days 1-14, Overall (A+B), N=32): (0.0%) | Hot Flush, subjects (n), Plasma Estradiol Level 20-50 pg/mL ([2]; Days 1-14, Overall (A+B), N=32): 0 | Hot Flush, subjects (n), Plasma Estradiol Level <20 pg/mL ([2]; Days 1-14, Overall (A+B), N=32): 2 | Hot Flush, subjects (n), Plasma Estradiol Level >50 pg/mL ([2]; Days 1-14, Overall (A+B), N=32): 0 | Hot Flush, subjects (%), Plasma Estradiol Level 20-50 pg/mL [2, 3]: (0.0%) | Hot Flush, subjects (%), Plasma Estradiol Level <20 pg/mL [2, 3]: (0.0%) | Hot Flush, subjects (%), Plasma Estradiol Level >50 pg/mL [2, 3]: (0.0%) | Hot Flush, subjects (n), Plasma Estradiol Level 20-50 pg/mL [2, 3]: 0 | Hot Flush, subjects (n), Plasma Estradiol Level <20 pg/mL [2, 3]: 0 | Hot Flush, subjects (n), Plasma Estradiol Level >50 pg/mL [2, 3]: 0 | Hot Flush, subjects (%), Plasma Estradiol Level 20-50 pg/mL [2, 4]: (0.0%) | Hot Flush, subjects (%), Plasma Estradiol Level <20 pg/mL [2, 4]: (12.5%) | Hot Flush, subjects (%), Plasma Estradiol Level >50 pg/mL [2, 4]: (0.0%) | Hot Flush, subjects (n), Plasma Estradiol Level 20-50 pg/mL [2, 4]: 0 | Hot Flush, subjects (n), Plasma Estradiol Level <20 pg/mL [2, 4]: 2 | Hot Flush, subjects (n), Plasma Estradiol Level >50 pg/mL [2, 4]: 0 | Hot Flush, subjects (%), Plasma Estradiol Level 20-50 pg/mL [2, 5]: (0.0%) | Hot Flush, subjects (%), Plasma Estradiol Level <20 pg/mL [2, 5]: (12.5%) | Hot Flush, subjects (%), Plasma Estradiol Level >50 pg/mL [2, 5]: (0.0%) | Hot Flush, subjects (n), Plasma Estradiol Level 20-50 pg/mL [2, 5]: 0 | Hot Flush, subjects (n), Plasma Estradiol Level <20 pg/mL [2, 5]: 4 | Hot Flush, subjects (n), Plasma Estradiol Level >50 pg/mL [2, 5]: 0 | Hot Flush, subjects (%), Plasma Estradiol Level 20-50 pg/mL [2, 6]: (0.0%) | Hot Flush, subjects (%), Plasma Estradiol Level <20 pg/mL [2, 6]: (0.0%) | Hot Flush, subjects (%), Plasma Estradiol Level >50 pg/mL [2, 6]: (0.0%) | Hot Flush, subjects (n), Plasma Estradiol Level 20-50 pg/mL [2, 6]: 0 | Hot Flush, subjects (n), Plasma Estradiol Level <20 pg/mL [2, 6]: 0 | Hot Flush, subjects (n), Plasma Estradiol Level >50 pg/mL [2, 6]: 0 | Hot Flush, subjects (%), Plasma Estradiol Level 20-50 pg/mL [2, 7]: (0.0%) | Hot Flush, subjects (%), Plasma Estradiol Level <20 pg/mL [2, 7]: (25.0%) | Hot Flush, subjects (%), Plasma Estradiol Level >50 pg/mL [2, 7]: (0.0%) | Hot Flush, subjects (n), Plasma Estradiol Level 20-50 pg/mL [2, 7]: 0 | Hot Flush, subjects (n), Plasma Estradiol Level <20 pg/mL [2, 7]: 4 | Hot Flush, subjects (n), Plasma Estradiol Level >50 pg/mL [2, 7]: 0 | Hot Flush, subjects (%), Plasma Estradiol Level 20-50 pg/mL [2, 8]: (10.3%) | Hot Flush, subjects (%), Plasma Estradiol Level <20 pg/mL [2, 8]: (6.9%) | Hot Flush, subjects (%), Plasma Estradiol Level >50 pg/mL [2, 8]: (0.0%) | Hot Flush, subjects (n), Plasma Estradiol Level 20-50 pg/mL [2, 8]: 3 | Hot Flush, subjects (n), Plasma Estradiol Level <20 pg/mL [2, 8]: 2 | Hot Flush, subjects (n), Plasma Estradiol Level >50 pg/mL [2, 8]: 0 | Hot Flush, subjects (%), Plasma Estradiol Level 20-50 pg/mL [2, 9]: (0.0%) | Hot Flush, subjects (%), Plasma Estradiol Level <20 pg/mL [2, 9]: (0.0%) | Hot Flush, subjects (%), Plasma Estradiol Level >50 pg/mL [2, 9]: (0.0%) | Hot Flush, subjects (n), Plasma Estradiol Level 20-50 pg/mL [2, 9]: 0 | Hot Flush, subjects (n), Plasma Estradiol Level <20 pg/mL [2, 9]: 0 | Hot Flush, subjects (n), Plasma Estradiol Level >50 pg/mL [2, 9]: 0 | Hot Flush, subjects (%), Plasma Estradiol Level 20-50 pg/mL [2, 10]: (20.0%) | Hot Flush, subjects (%), Plasma Estradiol Level <20 pg/mL [2, 10]: (13.3%) | Hot Flush, subjects (%), Plasma Estradiol Level >50 pg/mL [2, 10]: (0.0%) | Hot Flush, subjects (n), Plasma Estradiol Level 20-50 pg/mL [2, 10]: 3 | Hot Flush, subjects (n), Plasma Estradiol Level <20 pg/mL [2, 10]: 2 | Hot Flush, subjects (n), Plasma Estradiol Level >50 pg/mL [2, 10]: 0 | Hot Flush, subjects (%), Plasma Estradiol Level 20-50 pg/mL [2, 11]: (0.0%) | Hot Flush, subjects (%), Plasma Estradiol Level <20 pg/mL [2, 11]: (3.4%) | Hot Flush, subjects (%), Plasma Estradiol Level >50 pg/mL [2, 11]: (0.0%) | Hot Flush, subjects (n), Plasma Estradiol Level 20-50 pg/mL [2, 11]: 0 | Hot Flush, subjects (n), Plasma Estradiol Level <20 pg/mL [2, 11]: 1 | Hot Flush, subjects (n), Plasma Estradiol Level >50 pg/mL [2, 11]: 0 | Hot Flush, subjects (%), Plasma Estradiol Level 20-50 pg/mL [2, 12]: (0.0%) | Hot Flush, subjects (%), Plasma Estradiol Level <20 pg/mL [2, 12]: (0.0%) | Hot Flush, subjects (%), Plasma Estradiol Level >50 pg/mL [2, 12]: (0.0%) | Hot Flush, subjects (n), Plasma Estradiol Level 20-50 pg/mL [2, 12]: 0 | Hot Flush, subjects (n), Plasma Estradiol Level <20 pg/mL [2, 12]: 0 | Hot Flush, subjects (n), Plasma Estradiol Level >50 pg/mL [2, 12]: 0 | Hot Flush, subjects (%), Plasma Estradiol Level 20-50 pg/mL [2, 13]: (0.0%) | Hot Flush, subjects (%), Plasma Estradiol Level <20 pg/mL [2, 13]: (6.7%) | Hot Flush, subjects (%), Plasma Estradiol Level >50 pg/mL [2, 13]: (0.0%) | Hot Flush, subjects (n), Plasma Estradiol Level 20-50 pg/mL [2, 13]: 0 | Hot Flush, subjects (n), Plasma Estradiol Level <20 pg/mL [2, 13]: 1 | Hot Flush, subjects (n), Plasma Estradiol Level >50 pg/mL [2, 13]: 0 | Hot Flush, subjects (%), Plasma Estradiol Level 20-50 pg/mL [2, 14]: (0.0%) | Hot Flush, subjects (%), Plasma Estradiol Level <20 pg/mL [2, 14]: (0.0%) | Hot Flush, subjects (%), Plasma Estradiol Level >50 pg/mL [2, 14]: (0.0%) | Hot Flush, subjects (n), Plasma Estradiol Level 20-50 pg/mL [2, 14]: 0 | Hot Flush, subjects (n), Plasma Estradiol Level <20 pg/mL [2, 14]: 0 | Hot Flush, subjects (n), Plasma Estradiol Level >50 pg/mL [2, 14]: 0 | Hot Flush, subjects (%), Plasma Estradiol Level 20-50 pg/mL [2, 15]: (0.0%) | Hot Flush, subjects (%), Plasma Estradiol Level <20 pg/mL [2, 15]: (0.0%) | Hot Flush, subjects (%), Plasma Estradiol Level >50 pg/mL [2, 15]: (0.0%) | Hot Flush, subjects (n), Plasma Estradiol Level 20-50 pg/mL [2, 15]: 0 | Hot Flush, subjects (n), Plasma Estradiol Level <20 pg/mL [2, 15]: 0 | Hot Flush, subjects (n), Plasma Estradiol Level >50 pg/mL [2, 15]: 0 | Hot Flush, subjects (%), Plasma Estradiol Level 20-50 pg/mL [2, 16]: (0.0%) | Hot Flush, subjects (%), Plasma Estradiol Level <20 pg/mL [2, 16]: (0.0%) | Hot Flush, subjects (%), Plasma Estradiol Level >50 pg/mL [2, 16]: (0.0%) | Hot Flush, subjects (n), Plasma Estradiol Level 20-50 pg/mL [2, 16]: 0 | Hot Flush, subjects (n), Plasma Estradiol Level <20 pg/mL [2, 16]: 0 | Hot Flush, subjects (n), Plasma Estradiol Level >50 pg/mL [2, 16]: 0 | tolerability ([2]; both cohorts): well-tolerated | adverse events: headache [2, 17]: 38/166 | adverse events: hot flushes [2, 17]: 19/166 | median E2 levels, window never left (β17-estradiol (E2); Concurrent-ABT cohort, whole study): 20 to 50 pg/mL | median E2 level (β17-estradiol (E2); by week 2): 3.7 pg/mL | median E2 level (β17-estradiol (E2); by week 4): 4.1 pg/mL
